One assay relates to Staphylococcus aureus. Briefly: Antibacterial activity against Staphylococcus aureus at 25 ug/disk by disc-diffusion assay. It is filed as functional, organism-based. (Agar diffusion results depend on both activity and mobility in agar.)
In the next assay the test system is Bacillus subtilis. Briefly: Antibacterial activity against Bacillus subtilis at 10 ug/disk by disc-diffusion assay. The class given is functional, organism-based.

SMILES strings stand for the structures. Calls of active or inactive are those of the source. No cut-off for these calls is given here.

As for `CC(C)[C@H]1CC[C@@H](C)C2=CC[C@](C)(NC=O)C[C@@H]21` (relative stereo), the outcome in the assay with Staphylococcus aureus and with Bacillus subtilis was Active.

Source of the values: ChEMBL document CHEMBL1159218, “Metabolites of the Palauan sponge Axinyssa aplysinoides” (J Nat Prod, 1995).
